Experimental data: patent US8501946B2 (Glaxo Group Limited, priority 2009, dated 2013)

Target: T1, human recombinant P2X7 receptors (Homo sapiens, UniProt Q99572)
T1 construct: expressed in transfected cells
T1 sequence (Q99572 1-595): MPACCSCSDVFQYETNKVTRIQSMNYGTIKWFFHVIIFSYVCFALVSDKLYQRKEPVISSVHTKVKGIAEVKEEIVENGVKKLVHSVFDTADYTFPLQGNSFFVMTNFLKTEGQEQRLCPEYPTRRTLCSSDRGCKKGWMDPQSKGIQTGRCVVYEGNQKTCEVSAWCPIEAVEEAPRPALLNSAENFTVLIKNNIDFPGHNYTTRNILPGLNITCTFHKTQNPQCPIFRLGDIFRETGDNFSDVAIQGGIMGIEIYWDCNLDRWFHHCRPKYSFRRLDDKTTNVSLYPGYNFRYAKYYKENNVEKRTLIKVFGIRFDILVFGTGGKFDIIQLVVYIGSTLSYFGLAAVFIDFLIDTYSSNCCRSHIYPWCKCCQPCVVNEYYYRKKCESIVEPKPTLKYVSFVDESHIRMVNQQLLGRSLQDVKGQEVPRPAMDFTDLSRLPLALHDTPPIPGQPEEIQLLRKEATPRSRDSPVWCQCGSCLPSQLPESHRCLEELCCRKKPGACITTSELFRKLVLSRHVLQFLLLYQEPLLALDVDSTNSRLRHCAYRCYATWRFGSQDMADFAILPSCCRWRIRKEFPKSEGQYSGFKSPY
Assay: Ethidium Accumulation Assay 1 (HEK293 cells, ATP-induced ethidium uptake)
Format: cell-based
Conditions: HEK293 cells expressing human P2X7; 1 mM ATP; sometimes mean of more than one measurement; read-out: Assay 1 (antagonist pIC50 for blocking ATP responses) (converted)
Procedure: Eithidium Accumulation Assay 1
Studies were performed using NaCl assay buffer of the following composition: 140 mM NaCl, 10 mM HEPES [4-(2-hydroxyethyl)-1-piperazine-1-ethanesulfonic acid], 5 mM N-methyl-D-glucamine, 5.6 mM KCl, 10 mM D-glucose, 0.5 mM CaCl2 (pH 7.4).
Human Embryonic Kidney (HEK) 293 cells, stably expressing human recombinant P2X7 receptors, were grown in poly-D-lysine pretreated 96 well plates for 18-24 hours.
The cells were washed twice with 350 μl of the assay buffer, before addition of 50 μl of the assay buffer containing the putative P2X7 receptor antagonist compound. (A small amount of dimethyl sulfoxide, for initially dissolving the compound, is optionally used and present in this 50 μl test compound sample.) The cells were then incubated at room temperature (19-21° C.) for 30 min before addition of ATP and ethidium (100 μM final assay concentration). The ATP concentration was chosen to be close to the EC80 for the receptor type and was 1 mM for studies on the human P2X7 receptor. Incubations were continued for 8 or 16 min and were terminated by addition of 25 μl of 1.3M sucrose containing 4 mM of the P2X7 receptor antagonist Reactive Black 5 (Aldrich). […] Antagonist pIC50 values for blocking ATP responses were determined using iterative curve fitting techniques.

| Structure (SMILES) | IC50 [nM] |
| --- | --- |
| O=C(c1ccc(F)cc1F)N1CCn2c(nnc2-c2ccccn2)C1 [Example 78, 7-[(2,4-difluorophenyl)carbonyl]-3-(2-pyridinyl)-5,6,7,8-tetrahydro[1,2,4]triazolo [4,3-a]pyrazine] | < 100 |
| O=C(c1ccc(F)cc1Cl)N1CCn2c(nnc2-c2ccccc2)C1 [Example 30, 7-[(2-Chloro-4-fluorophenyl)carbonyl]-3-phenyl-5,6,7,8-tetrahydro[1,2,4]triazolo[4,3-a]pyrazine] | < 100 |
| O=C(c1ccc(F)cc1Cl)N1CCn2c(nnc2-c2cccc3cc[nH]c23)C1 [Example 132, 7-[(2-chloro-4-fluorophenyl)carbonyl]-3-(1H-indol-7-yl)-5,6,7,8-tetrahydro[1,2,4]triazolo[4,3-a]pyrazine] | < 100 |
| O=C(c1ccc(F)cc1Cl)N1CCn2c(nnc2-c2ccccc2O)C1 [Example 128, 2-{7-[(2-chloro-4-fluorophenyl)carbonyl]-5,6,7,8-tetrahydro[1,2,4]triazolo[4,3-a]pyrazin-3-yl}phenol] | < 501 |
| Cc1c(C(=O)N2CCn3c(nnc3-c3ncns3)C2)ccc(F)c1F [Example 202, 7-[(3,4-Difluoro-2-methylphenyl)carbonyl]-3-(1,2,4-thiadiazol-5-yl)-5,6,7,8-tetrahydro[1,2,4]triazolo[4,3-a]pyrazine] | < 100 |
| O=C(c1ccccc1Cl)N1CCn2c(nnc2-c2cscn2)C1 [Example 103, 7-[(2-chlorophenyl)carbonyl]-3-(1,3-thiazol-4-yl)-5,6,7,8-tetrahydro[1,2,4]triazolo [4,3-a]pyrazine] | < 10 |
| O=C(c1ccc(Cl)cc1Cl)N1CCn2c(nnc2-c2ccc(F)cc2)C1 [Example 100, 7-[(2,4-dichlorophenyl)carbonyl]-3-(4-fluorophenyl)-5,6,7,8-tetrahydro[1,2,4]triazolo [4,3-a]pyrazine] | < 100 |
| Cc1cc(F)ccc1C(=O)N1CCn2c(nnc2-c2cnccn2)C1 [Example 107, 7-[(4-fluoro-2-methylphenyl)carbonyl]-3-(2-pyrazinyl)-5,6,7,8-tetrahydro[1,2,4]triazolo [4,3-a]pyrazine] | < 100 |
| O=C(c1ccc(F)cc1Cl)N1CCn2c(nnc2-c2ccc(F)c(F)c2)C1 [Example 124, 7-[(2-chloro-4-fluorophenyl)carbonyl]-3-(3,4-difluorophenyl)-5,6,7,8-tetrahydro[1,2,4]triazolo[4,3-a]pyrazine] | < 100 |
| O=C(c1ccc(F)cc1Cl)N1CCn2c(nnc2-c2ncccc2F)C1 [Example 31, 7-[(2-chloro-4-fluorophenyl)carbonyl]-3-(3-fluoro-2-pyridinyl)-5,6,7,8-tetrahydro[1,2,4]triazolo [4,3-a]pyrazine] | < 10 |
| COc1ccccc1-c1nnc2n1CCN(C(=O)c1ccc(F)cc1Cl)C2 [Example 127, 7-[(2-chloro-4-fluorophenyl)carbonyl]-3-[2-(methyloxy)phenyl]-5,6,7,8-tetrahydro[1,2,4]triazolo[4,3-a]pyrazine] | < 501 |
| O=C(c1ccc(F)cc1Cl)N1CCn2c(nnc2-c2ncc(F)cc2F)C1 [Example 84, 7-[(2-chloro-4-fluorophenyl)carbonyl]-3-(3,5-difluoro-2-pyridinyl)-5,6,7,8-tetrahydro[1,2,4]triazolo [4,3-a]pyrazine] | < 100 |
| O=C(c1ccc(Cl)cc1Cl)N1CCn2c(nnc2-c2ccncn2)C1 [Example 102, 7-[(2,4-dichlorophenyl)carbonyl]-3-(4-pyrimidinyl)-5,6,7,8-tetrahydro[1,2,4]triazolo [4,3-a]pyrazine] | < 100 |

The remaining lines, values ahead:

| IC50 [nM] | Structure (SMILES) |
| --- | --- |
| < 100 | O=C(c1ccc(Cl)c(C(F)(F)F)c1)N1CCn2c(nnc2-c2cnccn2)C1 [Example 104, 7-{[4-chloro-3-(trifluoromethyl)phenyl]carbonyl}-3-(2-pyrazinyl)-5,6,7,8-tetrahydro[1,2,4]triazolo [4,3-a]pyrazine] |
| < 10 | O=C(c1cccc(C(F)(F)F)c1Cl)N1CCn2c(nnc2-c2ncccc2F)C1 [Example 52, 7-{[2-chloro-3-(trifluoromethyl)phenyl]carbonyl}-3-(3-fluoro-2-pyridinyl)-5,6,7,8-tetrahydro[1,2,4]triazolo [4,3-a]pyrazine] |
| < 10 | O=C(c1cccc(C(F)(F)F)c1Cl)N1CCn2c(nnc2-c2ncccn2)C1 [Example 50, 7-{[2-chloro-3-(trifluoromethyl)phenyl]carbonyl}-3-(2-pyrimidinyl)-5,6,7,8-tetrahydro[1,2,4]triazolo [4,3-a]pyrazine] |
| < 10 | O=C(c1cccc(C(F)(F)F)c1Cl)N1CCn2c(nnc2-c2cccnc2)C1 [Example 16, 7-{[2-Chloro-3-(trifluoromethyl)phenyl]carbonyl}-3-(3-pyridinyl)-5,6,7,8-tetrahydro[1,2,4]triazolo[4,3-a]pyrazine] |
| < 100 | O=C(c1ccc(F)cc1Cl)N1CCn2c(nnc2-c2cccc(F)c2F)C1 [Example 131, 7-[(2-chloro-4-fluorophenyl)carbonyl]-3-(2,3-difluorophenyl)-5,6,7,8-tetrahydro[1,2,4]triazolo[4,3-a]pyrazine] |
| < 10 | O=C(c1cccc(Cl)c1Cl)N1CCn2c(nnc2-c2cscn2)C1 [Example 67, 7-[(2,3-dichlorophenyl)carbonyl]-3-(1,3-thiazol-4-yl)-5,6,7,8-tetrahydro[1,2,4]triazolo[4,3-a]pyrazine] |
| < 10 | Cn1cccc1-c1nnc2n1CCN(C(=O)c1cccc(C(F)(F)F)c1Cl)C2 [Example 29, 7-{[2-chloro-3-(trifluoromethyl)phenyl]carbonyl}-3-(1-methyl-1H-pyrrol-2-yl)-5,6,7,8-tetrahydro[1,2,4]triazolo [4,3-a]pyrazine] |
| < 10 | O=C(c1cccc(C(F)(F)F)c1Cl)N1CCn2c(nnc2-c2ccc[nH]2)C1 [Example 38, 7-{[2-chloro-3-(trifluoromethyl)phenyl]carbonyl}-3-(1H-pyrrol-2-yl)-5,6,7,8-tetrahydro[1,2,4]triazolo [4,3-a]pyrazine] |
| < 501 | O=C(c1ccc(F)cc1Cl)N1CCn2c(Br)nnc2C1 [Example 109, 3-Bromo-7-[(2-chloro-4-fluorophenyl)carbonyl]-5,6,7,8-tetrahydro[1,2,4]triazolo[4,3-a]pyrazine] |
| < 100 | Cc1ncccc1-c1nnc2n1CCN(C(=O)c1cccc(C(F)(F)F)c1Cl)C2 [Example 65, 7-{[2-chloro-3-(trifluoromethyl)phenyl]carbonyl}-3-(2-methyl-3-pyridinyl)-5,6,7,8-tetrahydro[1,2,4]triazolo [4,3-a]pyrazine] |
| < 100 | CCCc1nnc2n1CCN(C(=O)c1cccc(C(F)(F)F)c1Cl)C2 [Example 134, 7-{[2-chloro-3-(trifluoromethyl)phenyl]carbonyl}-3-propyl-5,6,7,8-tetrahydro[1,2,4]triazolo[4,3-a]pyrazine] |
| < 100 | O=C(c1cccc(C(F)(F)F)c1)N1CCn2c(nnc2-c2ccccn2)C1 [Example 86] |
| < 10 | O=C(c1cccc(C(F)(F)F)c1Cl)N1CCn2c(Br)nnc2C1 [Example 1, 3-Bromo-7-{[2-chloro-3-(trifluoromethyl)phenyl]carbonyl}-5,6,7,8-tetrahydro[1,2,4]triazolo[4,3-a]pyrazine] |
| < 501 | CNc1nnc2n1CCN(C(=O)c1cccc(C(F)(F)F)c1Cl)C2 [Example 21, 7-{[2-chloro-3-(trifluoromethyl)phenyl]carbonyl}-N-methyl-5,6,7,8-tetrahydro[1,2,4]triazolo [4,3-a]pyrazine-3-amine] |
| < 100 | O=C(c1cccc(C(F)(F)F)c1Cl)N1CCn2c(nnc2N2CCCCC2)C1 [Example 23, 7-{[2-chloro-3-(trifluoromethyl)phenyl]carbonyl}-3-(1-piperidinyl)-5,6,7,8-tetrahydro[1,2,4]triazolo [4,3-a]pyrazine] |
| < 100 | O=C(c1cccc(Cl)c1Cl)N1CCn2c(nnc2-c2cccnn2)C1 [Example 57, 7-[(2,3-dichlorophenyl)carbonyl]-3-(3-pyridazinyl)-5,6,7,8-tetrahydro[1,2,4]triazolo [4,3-a]pyrazine] |
| < 10 | Cc1cccc(-c2nnc3n2CCN(C(=O)c2cccc(Cl)c2Cl)C3)n1 [Example 69, 7-[(2,3-dichlorophenyl)carbonyl]-3-(6-methyl-2-pyridinyl)-5,6,7,8-tetrahydro[1,2,4]triazolo [4,3-a]pyrazine] |
